Test results as given in patent publication USRE48175E1, “Hydrophobically tagged small molecules as inducers of protein degradation” (Dana-Farber Cancer Institute, Inc., priority 2012, dated 2020).

Tests used:
[1] = biological target: T1, ErbB3(667-1053) protein (Her3) (Homo sapiens, UniProt P21860); experiment: LanthaScreen Eu kinase binding assay (Her3 ATP-site binding); settings: binding to the ATP-site of Her3
T1 construct: Purified ErbB3(667-1053) protein was obtained from Invitrogen; purchased Invitrogen
T1 sequence (P21860 667-1053): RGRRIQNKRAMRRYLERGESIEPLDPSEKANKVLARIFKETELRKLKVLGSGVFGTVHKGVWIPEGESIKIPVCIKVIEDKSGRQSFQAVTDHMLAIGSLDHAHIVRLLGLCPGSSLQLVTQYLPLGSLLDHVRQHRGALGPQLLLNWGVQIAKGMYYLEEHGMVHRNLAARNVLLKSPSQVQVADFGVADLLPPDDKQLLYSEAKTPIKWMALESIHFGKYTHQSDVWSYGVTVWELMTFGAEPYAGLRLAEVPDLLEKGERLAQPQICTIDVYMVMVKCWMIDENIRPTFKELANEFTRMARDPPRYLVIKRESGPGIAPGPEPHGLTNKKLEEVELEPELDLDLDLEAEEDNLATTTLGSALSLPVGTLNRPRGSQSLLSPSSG
Experimental: To discover chemical starting points for developing Her3 inhibitors, the inventors screened a library of 1,500 kinase-directed compounds using the LanthaScreen™ Eu methodology for compounds that could bind to the ATP-site of Her3. […] See, e.g., Stachlewitz et al., J Pharmacol Exp Ther. (2005) 315:36-41.
FIG. 2 depicts binding affinity data for exemplary compounds of Formula (II). Binding affinity (IC50) was measured by Invitrogen LanthaScreen™ Eu kinase binding assay which is based on the binding and displacement of Alexa Fluor 647 labeled ATP-competitive kinase inhibitor scaffold (Kinase Tracer 178). Binding of the tracer to the kinase is detected using a europium-labeled anti-tag antibody (anti-GST). The binding of both the tracer and antibody to the kinase results in a high degree of FRET (fluorescenece resonance energy transfer) from the europium donor fluorophore to the Alexa Fluor 647 acceptor fluoropore on the kinase tracer. […] This centrifugation step will eliminate spurious data points that can arise on occasion due to any particulates in the product. • (3) Add 5 ul the mixture of ErbB3 protein and Eu-anti-GST to 5 ul test compound solution per well in coming 384 plates. • (4) Add 5 ul tracer 178 at concentration of 39 nM per well. • (5) Incubate for 3 hours at 4° C. and read plate with Perkin Elmer EnVision. […]

Her3 = biological target: T2, Her3 (Homo sapiens, UniProt P21860); experiment: Her3 protein degradation in cells; format: cell-based
T2 construct: endogenous in cells; host or cells: PC9 GR4
Experimental: (§1) Without wishing to be bound by any particular theory, the inventors hypothesize that this lack of inhibition is the result of poor cell penetration of TX2-62-1 due to its high molecular weight (MW=828.5). The inventors tested this hypothesis by designing a strategy whereby the two halves of TX2-62-1 (TX2-49-1 and TX2-57-1) were brought together inside of a cell via oxime formation. See Scheme 1 below.
(§2) PC9 Gefitinib Resistant 4 (GR4) cells were cultured in 60 mm plate with 10% fetal bovine serum (FBS), Roswell Park Memorial Institute medium (RPMI) medium. When the confluence reached 80%, cells were treated with compounds in indicated concentration. After 4 hours, wash cells with medium for three times. Cells were cultured for another 4 hours, followed by 3 times PBS washes. Cells were lysed with lysis buffer (25 mM Tris-HCl pH 7.4, 150 mM NaCl, 1 mM EDTA, 1% NP-40, 5% glycerol, Roche PhosSTOP phosphatase inhibitor cocktail tablets and Roche Complete Protease inhibitor cocktail tablets). […]
(§3) With the spectrophotometer set to 562 nm, zero the instrument on a cuvette filled only with water. Subsequently, measure the absorbance of all the samples with 10 minutes. Subtract the average 562 nm absorbance measurement of the Blank standard replicates from the 562 nm absorbance measurement of all other individual standard and unknown sample replicates. […]

[2] = tested on: downstream effectors of Her3, such as Erk and Akt; experiment: Phosphorylation of downstream effectors of Her3 (Erk, Akt) in cells; format: cell-based; settings: TX2-62-1 formed inside the cell from TX2-49-1 and TX2-57-1 via oxime formation
Experimental: as §1, §2, §3

Her3-addicted cells = experiment: Her3-dependent growth / viability of Her3-addicted cells; format: cell-based
Excerpt: as §1
FIG. 3 depicts anti-proliferation data for exemplary compounds of Formula (II). The anti-proliferation assay was carried out by using 96 well white bottom plates. 2000-4000 cells were seeded per well, and the medium volume per well was about 100 ul. Incubate for 3 days after adding and titrating indicated concentration of compounds. The cell viability was test by CellTiter-Glo® Luminescent Assay. In a typical experiment, add 10 ul CellTiter-Glo® reagent per well. Mix and shake the plate for 2 minutes to induce cell lysis at room temperature. Allow the plate to incubate at room temperature for approximately 10 minutes to stabilize luminescent signal. Read plate with Perkin Elmer EnVision. The cell numbers were normalized by the DMSO control. And the EC50s were calculated by GraphPad Prism.

[3] = TX2-62-1 formed inside the cell from TX2-49-1 and TX2-57-1 via oxime formation

T2 sequence (P21860 20-1342): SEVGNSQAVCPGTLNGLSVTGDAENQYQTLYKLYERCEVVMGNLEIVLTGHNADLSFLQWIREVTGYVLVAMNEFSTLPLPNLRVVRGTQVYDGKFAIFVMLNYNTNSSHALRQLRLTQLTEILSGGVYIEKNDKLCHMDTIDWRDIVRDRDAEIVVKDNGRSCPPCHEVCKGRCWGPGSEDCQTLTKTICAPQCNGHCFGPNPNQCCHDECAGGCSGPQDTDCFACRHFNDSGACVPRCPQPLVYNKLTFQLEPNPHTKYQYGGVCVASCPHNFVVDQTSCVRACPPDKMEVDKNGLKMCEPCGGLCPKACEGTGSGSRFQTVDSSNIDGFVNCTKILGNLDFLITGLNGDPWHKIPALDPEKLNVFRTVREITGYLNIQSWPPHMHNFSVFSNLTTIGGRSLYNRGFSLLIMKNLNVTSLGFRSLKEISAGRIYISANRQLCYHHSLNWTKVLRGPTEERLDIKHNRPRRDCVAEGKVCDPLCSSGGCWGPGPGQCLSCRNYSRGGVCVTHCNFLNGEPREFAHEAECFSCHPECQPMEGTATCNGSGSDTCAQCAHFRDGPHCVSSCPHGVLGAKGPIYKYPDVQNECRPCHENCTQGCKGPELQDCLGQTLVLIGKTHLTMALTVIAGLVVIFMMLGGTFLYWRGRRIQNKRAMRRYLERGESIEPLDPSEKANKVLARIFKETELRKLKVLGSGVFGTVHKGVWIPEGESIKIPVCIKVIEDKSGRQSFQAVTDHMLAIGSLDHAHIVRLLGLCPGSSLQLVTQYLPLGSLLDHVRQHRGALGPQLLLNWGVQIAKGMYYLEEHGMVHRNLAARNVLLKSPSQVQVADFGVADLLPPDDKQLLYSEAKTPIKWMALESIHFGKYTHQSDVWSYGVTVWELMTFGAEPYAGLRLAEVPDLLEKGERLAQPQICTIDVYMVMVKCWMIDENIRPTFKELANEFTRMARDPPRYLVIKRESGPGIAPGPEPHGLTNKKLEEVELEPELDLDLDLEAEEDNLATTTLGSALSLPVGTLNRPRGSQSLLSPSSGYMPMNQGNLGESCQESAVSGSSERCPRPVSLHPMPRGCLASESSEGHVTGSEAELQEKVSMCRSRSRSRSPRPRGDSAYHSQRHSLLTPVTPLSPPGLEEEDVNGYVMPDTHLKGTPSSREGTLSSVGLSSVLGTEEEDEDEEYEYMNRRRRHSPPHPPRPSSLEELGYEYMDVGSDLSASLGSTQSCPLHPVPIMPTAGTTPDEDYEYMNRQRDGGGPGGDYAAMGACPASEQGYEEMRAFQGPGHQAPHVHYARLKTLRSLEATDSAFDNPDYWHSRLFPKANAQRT

Compound | Her3 binding [1] | degradation of Her3 (Her3; [3]) | Her3 protein level after washout (Her3; after TX2-62-1 was washed out) | inhibition of Her3-dependent signaling [2] | viability of Her3-addicted cells (Her3-addicted cells; [3]) | cell proliferation after washout (Her3-addicted cells; after TX2-62-1 was washed out) | inhibition of Her3-dependent growth (Her3-addicted cells; compound added as preformed molecule)
COc1cc(-c2nn(C3CCC(N4CCN(C(C)=O)CC4)CC3)c3ncnc(N)c23)ccc1NC(=O)c1cc2ccccc2n1C (centres unmarked) [KIN001-111, reference compound] | most potent Her3 binder |  |  |  |  |  | 
C=CC(=O)Nc1cc(-c2nn(C3CCC(N4CCN(C/C(C)=N/OCCNC(=O)CC5C6CC7CC(C6)CC5C7)CC4)CC3)c3ncnc(N)c23)ccc1Oc1ccccc1 (centres unmarked) [TX2-62-1] | maintained potent and covalent Her3 binding ability | efficient degradation of Her3 | Her3 protein was resynthesized | inhibition of Her3-dependent signaling | loss of viability of Her3-addicted cells | cell proliferation resumed | did not inhibit Her3-dependent growth
